Results on one molecule are retold here after patent US7625872B2, “Branched immunomodulatory compounds and methods of using the same” (Dynavax Technologies Corporation, priority 2002, dated 2009).

A value given as a limit tells only on which side of the number the result lay.

For orientation: solubility means how much of the substance goes into solution per volume.

A short description of this series: solubility of spacer moiety measured as dialcohol precursor. In kind it is physicochemical. As to conditions: dodecyl spacer measured as dialcohol precursor; water solubility. Here is the method:
In addition, a spacer moiety that has low solubility, such as a dodecyl spacer (solubility <5 mg/ml when measured as dialcohol precursor 1,12-dihydroxydodecane) is not preferred because it can reduce the hydrophilicity and activity of the BIC. Preferably, spacer moieties have solubility much greater than 5 mg/ml (e.g., solubility at least about 20 mg/ml, at least about 50 mg/ml or at least about 100 mg/ml), e.g., when measured as dialcohol precursors. The form of the spacer moiety used for testing its water solubility is generally its most closely related unactivated and unprotected spacer precursor molecule.

In turn, `OCCCCCCCCCCCCO` [1,12-dihydroxydodecane] showed a solubility of under 5000 µg/mL.
